{
  "source": "paper PMC11768664",
  "about": "(Viruses, 2024)",
  "key": {"[1]": {"tested_on": "W12I 20861 cervical precancer cells", "assay": "Growth inhibition MTT assay on W12 clone 20861 (type 2 integrant)", "type": "cell-based", "details": "120 h, read-out: IC50, growth inhibitory activity on W12 clone 20861"}, "[2]": {"tested_on": "W12I 20862 cervical precancer cells", "assay": "Growth inhibition MTT assay on W12 clone 20862 (type 2 integrant)", "type": "cell-based"}, "[3]": {"tested_on": "W12I 20822 cervical precancer cells", "assay": "Growth inhibition MTT assay on W12 clone 20822 (type 1 integrant)", "type": "cell-based"}, "[4]": {"tested_on": "W12E 20850 cervical precancer cells", "assay": "Growth inhibition MTT assay on W12 clone 20850 (episomal HPV16)", "type": "cell-based", "details": "for IC50: 120 h, read-out: IC50, growth inhibitory activity on W12 clone 20850"}, "Na^+/K^+-ATPase": {"target": "Na^+/K^+-ATPase", "set-up": "method as in earlier work", "details": "read-out: IC50, inhibition of the activity of the Na+/K+-ATPase, cited from earlier work"}, "[5]": {"tested_on": "HeLa human cervical cancer cells", "assay": "Growth inhibition (proliferation) MTT assay on HeLa cells", "type": "cell-based", "details": "for IC50: Homo sapiens"}, "HT29 colon cancer cells": {"tested_on": "HT29 colon cancer cells", "assay": "Growth inhibition (proliferation) MTT assay on HT29 cells", "type": "cell-based", "details": "Homo sapiens"}, "[6]": {"tested_on": "J2 3T3 mouse embryo fibroblasts (feeder cells)", "assay": "Growth inhibition MTT assay on 3T3 feeder cells", "type": "cell-based", "details": "NIH3T3, read-out: IC50, growth inhibitory activity on 3T3 feeder cells"}, "[7]": {"tested_on": "HeLa human cervical cancer cells", "assay": "Combination growth inhibition assay and Combination Index on HeLa cells", "type": "cell-based"}, "[8]": {"tested_on": "cell cycle genes in HeLa cells", "assay": "Gene expression analysis of HeLa cells treated with curcumin", "type": "cell-based, human", "details": "curcumin 32 µM, 8 h"}, "[9]": {"details": "120 h, read-out: IC50, growth inhibitory activity on W12 clone 20862"}, "[10]": {"details": "120 h, read-out: IC50, growth inhibitory activity on W12 clone 20822"}, "[11]": {"details": "MTT, 96 h (Figure 1 legend; table footnote prints 120 h), read-out: IC50, growth inhibitory activity on HeLa cells"}, "[12]": {"details": "HT-29, HT29, MTT, 96 h (Figure 1 legend; table footnote prints 120 h), read-out: IC50, growth inhibitory activity on HT29 cells"}},
  "note": "Where “and” joins values, the source holds several entries; their conditions need not be identical. Equal values may be shown once. Read-outs that look alike come from different tables or passages of the source.",
  "data": [
    {"molecule": "COC1=CC(=O)O[C@@H](CCc2ccc3c(c2)OCO3)C1", "note": "[DHM, dihydromethysticin]", "values": [
      {"measurement": "IC50", "setting": "[1]", "result": 12.4, "unit": "µg/mL"},
      {"measurement": "IC50", "setting": "[2]; [9]", "result": 12.8, "unit": "µg/mL"},
      {"measurement": "IC50", "setting": "[3]; [10]", "result": 10.2, "unit": "µg/mL"},
      {"measurement": "IC50", "setting": "[4]", "result": 24.7, "unit": "µg/mL"}
    ]},
    {"molecule": "C[C@H]1O[C@@H](O[C@H]2[C@@H](O)C[C@H](O[C@H]3[C@@H](O)C[C@H](O[C@H]4CC[C@@]5(C)[C@H](CC[C@@H]6[C@@H]5CC[C@]5(C)[C@@H](C7=CC(=O)OC7)CC[C@]65O)C4)O[C@@H]3C)O[C@@H]2C)C[C@H](O)[C@@H]1O", "note": "[digitoxin, reference compound]", "values": [
      {"measurement": "IC50", "setting": "Na^+/K^+-ATPase; comparator, unit inferred", "result": "< 100", "unit": "nM"},
      {"measurement": "IC50", "setting": "[5]; 96 h, read-out: Growth inhibitory Activity (ug/mL), HeLa Cells", "result": 0.12, "unit": "µg/mL"},
      {"measurement": "IC50", "setting": "HT29 colon cancer cells; HT-29, 96 h, read-out: Growth inhibitory Activity (ug/mL), HT29 Cells", "result": 0.13, "unit": "µg/mL"}
    ]},
    {"molecule": "C(=Cc1ccccc1)c1ccccc1", "note": "[stilbene]", "values": [
      {"measurement": "IC50, growth inhibitory activity on HeLa cells", "setting": "[5]; MTT, 96 h (Figure 1 legend; table footnote prints 120 h)", "result": "greater than 100 µg/mL"}
    ]},
    {"molecule": "C[C@H]1O[C@@H](O[C@H]2[C@@H](O)C[C@H](O[C@H]3[C@@H](O)C[C@H](O[C@H]4CC[C@@]5(C)[C@H](CC[C@@H]6[C@@H]5C[C@@H](O)[C@]5(C)[C@@H](C7=CC(=O)OC7)CC[C@]65O)C4)O[C@@H]3C)O[C@@H]2C)C[C@H](O)[C@@H]1O", "note": "[digoxin, reference compound]", "values": [
      {"measurement": "IC50", "setting": "[1]", "result": 0.0037, "unit": "µg/mL"},
      {"measurement": "IC50", "setting": "[5]; read-out: IC50, growth inhibitory activity on HeLa cells", "result": 0.12, "unit": "µg/mL"},
      {"measurement": "IC50", "setting": "[2]; [9]", "result": 0.0245, "unit": "µg/mL"},
      {"measurement": "IC50", "setting": "[6]", "result": "> 10", "unit": "µg/mL"},
      {"measurement": "IC50", "setting": "[3]; [10]", "result": 0.008, "unit": "µg/mL"},
      {"measurement": "IC50", "setting": "[4]", "result": "> 0.025", "unit": "µg/mL"},
      {"measurement": "IC50", "setting": "HT29 colon cancer cells; HT-29, read-out: IC50, growth inhibitory activity on HT29 cells", "result": 0.13, "unit": "µg/mL"}
    ]},
    {"molecule": "lambda carrageenan", "values": [
      {"measurement": "activity on 20850 cells, in words", "setting": "[4]; after sonication, inverse pattern in a repeat experiment", "result": "highly active"}
    ]},
    {"molecule": "Cc1coc2c1C(=O)C(=O)c1c-2ccc2c1CCCC2(C)C", "note": "[tanshinone IIA]", "values": [
      {"measurement": "IC50", "setting": "[1]", "result": 1.4, "unit": "µg/mL"},
      {"measurement": "IC50", "setting": "[5]; Figure 1C, 96 h, MTT, read-out: Growth inhibitory Activity (ug/mL), HeLa Cells", "result": 1.4, "unit": "µg/mL"},
      {"measurement": "IC50", "setting": "[5]; [11]", "result": 1.33, "unit": "µg/mL"},
      {"measurement": "IC50", "setting": "[2]; type 2 integrant, 120 h, MTT, read-out: IC50, growth inhibitory activity on W12 clone 20862", "result": 3.1, "unit": "µg/mL"},
      {"measurement": "IC50", "setting": "[2]; value quoted with the RT-PCR results, read-out: IC50, relative growth inhibitory effect on 20862", "result": 2800, "unit": "nM"},
      {"measurement": "percentage of viable cells", "setting": "[7]; tanshinone IIA 0.2 μM alone, 90% curcuminoids experiment", "result": 134, "unit": "%"},
      {"measurement": "percent viable cells", "setting": "[7]; tanshinone IIA 0.2 µΜ alone, 95% curcuminoids experiment", "result": 91.96, "unit": "%"},
      {"measurement": "IC50", "setting": "[3]; type 1 integrant, 120 h, MTT, read-out: IC50, growth inhibitory activity on W12 clone 20822", "result": 2, "unit": "µg/mL"},
      {"measurement": "IC50", "setting": "[3]; value quoted with the RT-PCR results, read-out: IC50, relative growth inhibitory effect on 20822", "result": 2100, "unit": "nM"},
      {"measurement": "IC50", "setting": "[4]; episomal, MTT", "result": 2.3, "unit": "µg/mL"},
      {"measurement": "low concentration with significant activity on 20850 (episomal) cells", "setting": "[4]; p = 0.0058", "result": 2.5, "unit": "µM"},
      {"measurement": "IC50", "setting": "HT29 colon cancer cells; HT-29, Figure 1C, 96 h, MTT, read-out: Growth inhibitory Activity (ug/mL), HT29 Cells", "result": 1.3, "unit": "µg/mL"},
      {"measurement": "IC50", "setting": "HT29 colon cancer cells; [12]", "result": 1.27, "unit": "µg/mL"}
    ]},
    {"molecule": "CC(C)c1cc2c(c(O)c1O)[C@@]1(C(=O)O)CCCC(C)(C)[C@@H]1CC2", "note": "[carnosic acid]", "values": [
      {"measurement": "IC50", "setting": "[1]", "result": 14.1, "unit": "µg/mL"},
      {"measurement": "IC50", "setting": "[5]; [11]", "result": 2.03, "unit": "µg/mL"},
      {"measurement": "IC50", "setting": "[2]; [9]", "result": 10, "unit": "µg/mL"},
      {"measurement": "IC50", "setting": "[3]; [10]", "result": 10.7, "unit": "µg/mL"},
      {"measurement": "IC50", "setting": "[4]", "result": 13, "unit": "µg/mL"},
      {"measurement": "IC50", "setting": "HT29 colon cancer cells; [12]", "result": 2.13, "unit": "µg/mL"}
    ]},
    {"molecule": "CC(=O)O[C@@H]1C[C@@]23C[C@@]24CC[C@H](O[C@@H]2OC[C@@H](O)[C@H](O)[C@H]2O)C(C)(C)[C@@H]4CC[C@H]3[C@]2(C)C[C@@H]3O[C@]4(C[C@@H](C)[C@@H]3[C@@]12C)O[C@H](O)[C@@]1(C)O[C@@H]41", "note": "[actein]", "values": [
      {"measurement": "IC50", "setting": "[1]", "result": 37.9, "unit": "µg/mL"},
      {"measurement": "IC50", "setting": "[2]; [9]", "result": 36.3, "unit": "µg/mL"},
      {"measurement": "IC50", "setting": "[3]; [10]", "result": 55.7, "unit": "µg/mL"},
      {"measurement": "IC50", "setting": "[4]", "result": 41.7, "unit": "µg/mL"}
    ]},
    {"molecule": "COc1cc(/C=C/C(=O)CC(=O)/C=C/c2ccc(O)c(OC)c2)ccc1O", "note": "[curcumin]", "values": [
      {"measurement": "IC50", "setting": "Na^+/K^+-ATPase; as previously described", "result": 2000, "unit": "nM"},
      {"measurement": "Ratio, ATM (NM_000051)", "setting": "[8]", "result": 15.43},
      {"measurement": "Ratio, CDC6 (NM_001254)", "setting": "[8]", "result": 2.68},
      {"measurement": "Ratio, CDC20 (NM_016263)", "setting": "[8]", "result": 19.4},
      {"measurement": "Ratio, CDKN1B (NM_004064)", "setting": "[8]", "result": 2.77},
      {"measurement": "Ratio, E2F4 (NM_001950)", "setting": "[8]", "result": 2.37},
      {"measurement": "Ratio, E2F5 (NM_001951)", "setting": "[8]", "result": 2.94},
      {"measurement": "Ratio, GSK3B (NM_002093)", "setting": "[8]", "result": 2.09},
      {"measurement": "Ratio, ORC1L (NM_004153)", "setting": "[8]", "result": 3.10},
      {"measurement": "Ratio, PLK1 (NM_005030)", "setting": "[8]", "result": 2.01},
      {"measurement": "Ratio, SKP2 (NM_005983)", "setting": "[8]", "result": 5.03},
      {"measurement": "Ratio, SMAD4 (NM_005359)", "setting": "[8]", "result": 3.49},
      {"measurement": "Ratio, SMC3 (NM_005445)", "setting": "[8]", "result": "−3.89"},
      {"measurement": "Ratio, STAG1 (NM_005862)", "setting": "[8]", "result": 2.37},
      {"measurement": "Ratio, STAG2 (NM_001042749)", "setting": "[8]", "result": "−3.56"},
      {"measurement": "Ratio, ZBTB17 (NM_003443)", "setting": "[8]", "result": 2.48},
      {"measurement": "Ratio, ATM (NM_138292)", "setting": "[8]; text prints fold", "result": "36 and 35.94"}
    ]}
  ]
}
